The text below walks through data of patent US20130231316A1, “Drug Combination Comprising a Selective Serotonin Reuptake Inhibitor and a Glucocorticoid Receptor Antagonist for the Treatment of Depression” (priority 2004, published 2013).

The structures appear in SMILES notation. Like-named read-outs stand apart in the source and are kept apart here.

In this test the test system is 5-HT1A autoreceptor. Particulars: fluoxetine 10 mg/kg i.p. daily, Org 34850 15 mg/kg i.p. twice daily or vehicle, fall following i.p. injection of fluoxetine 10 mg/kg, prefrontal cortex.

Experimental: In experimental animals this desensitization can be measured using microdialysis in the prefrontal cortex and a combination of local administration of an SSRI (fluoxetine) in the region of the probe to block local uptake and systemic injection which affects all uptake sites and leads to 5-HT1A autoreceptor activation.
Studies were performed on Hooded Lister rats housed in groups of three with food and water available ad libitum. Animals were kept in controlled environmental conditions: temperature (20° C.) and humidity (30-50%) on a 12 h light/dark cycle (lights on 07.00 a.m.). Each cage received the same treatment and animals from a single cage studied on the same day to avoid social isolation. Animals underwent two treatments; vehicle or GR antagonist (15 mg/kg Org 34850, intraperitoneally (i.p.)) given as twice daily injections at 07:00-07:30 and 19:00-19:30. All animals received a single daily injection of fluoxetine (10 mg/kg in sterile water i.p.) given in the morning. Treatment periods were 0 (control), 3, 7 or 14 days.
For microdialysis animals were anaesthetised with chloral hydrate (500 mg/kg i.p. plus supplementary doses as required). Surgery was undertaken to position a microdialysis probe in the right prefrontal cortex (stereotaxic coordinates: rostral +3.2 mm, lateral 0.5 mm, ventral −4.6 mm from bregma and dura surface). The probe was perfused with artificial cerebrospinal fluid (aCSF) for 3 h until stable basal level of 5-HT is achieved. Samples were collected every 20 minutes and analysed by HPLC with electrochemical detection. The experimental protocol comprised three phases: i) Basal extracellular levels of 5-HT were measured for 60 min.; ii) Fluoxetine (10 μM) was added to the aCSF to block local uptake in order to measure total release rate. Samples were collected for 80 min. and iii) Fluoxetine was injected i.p. (10 mg/kg) to block all uptake sites, including at the autoreceptor, and samples were collected for 120 min. The magnitude of the fall in measured 5-HT levels after this injection was used as a measure of autoreceptor sensitivity.

Regarding `CNCCC(Oc1ccc(C(F)(F)F)cc1)c1ccccc1` (stereo not drawn) [fluoxetine], the “Mean Fall in 5-HT levels” value runs as follows: (3 days pretreatment) 7.59 fmol; (7 days pretreatment) 7.37 fmol; (14 days pretreatment) 4.85 fmol.
